Entries after “also recorded” stand apart in the source; their conditions may differ.

One data set concerns HBE cells. As to the kind of experiment: CCK-8 cell viability, HBE normal bronchial cells. Type of data set: cell-based. To be noted: HBE normal human bronchial cell line, read-out: Cellular Antiproliferative Activity (IC50, μM) HBE. Here is the method: (§1) All the cell viability assays were performed according to the CCK-8 method. The cells were seeded at a density of 5 to 8 × 10^4 cells/mL in 96-well plates in growth medium supplemented with 10% serum at 37 °C with 5% CO2 for one day. After 12 h of incubation, 100 μL of medium was removed, and 100 μL of sample solution with different concentrations of inhibitor was added and then the cells were incubated for 48 or 72 h. Subsequently, 10 μL of CCK-8 reagent (Biotool Company, Kirchberg, Switzerland, 5.0 mg/mL) dissolved in phosphate-buffered saline (PBS) was added and the cells were incubated for another 4 h. The absorbance was read at 450 nm with a microplate reader (Thermo Fisher Scientific, Waltham, MA, USA). The data were calculated using GraphPad Prim version 5.0.

For a further data set, the system named is H1975 cells. Description: CCK-8 cell viability, H1975. Type of data set: cell-based. Conditions: Homo sapiens, NCI-H1975, H1975 (EGFR T790M), read-out: Cellular Antiproliferative Activity (IC50, μM) H1975. Here is the method:
as §1

The subject of data set [1] is A431 cells. Description: CCK-8 cell viability, A431. The format is cell-based. To be noted: Homo sapiens, A-431; A431 (wild-type), CCK-8; read-out: Cellular Antiproliferative Activity (IC50, μM) A431. Here is the method: as §1
Another data set concerns the target T1, wild-type EGFR (Homo sapiens, UniProt P00533).
T1 construct: purchased Promega Corporation V3831
Description: EGFR kinase enzymatic assay (ADP-Glo), wild-type. Conditions: read-out: EGFR (IC50, nM) WT. Type of data set: biochemical. Here is the method:
The experiments were performed according to the instructions of the manufacturer. […] The test was performed in a 384-well plate, and includes the major steps below: (1) perform a 5 μL kinase reaction using 1× kinase buffer (e.g., 1× reaction buffer A); (2) incubate at room temperature for 60 min; (3) add 5 μL of ADP-Glo™ Reagent to stop the kinase reaction and deplete the unconsumed ATP, leaving only ADP and a very low background of ATP; (4) incubate at room temperature for 40 min; (5) add 10 μL of Kinase Detection; (6) reagent to convert ADP to ATP and introduce luciferase and luciferin to detect ATP; (7) incubate at room temperature for 30 min; (8) plate was measured on TriStar® LB942 Multimode Microplate Reader (BERTHOLD TECHNOLOGIES GmbH & Co. KG., Bad Wildbad, Germany) to detect the luminescence (Integration time 0.5–1 s). Curve fitting and data presentations were performed using GraphPad Prism version 5.0 (GraphPad Software, Inc.).

The test system of another data set is LoVo cells. Description: CCK-8 cell viability, LoVo. The format is cell-based. Conditions: Homo sapiens, CCK-8, read-out: Cellular Antiproliferative Activity (IC50, μM) LoVo. Here is the method: as §1
Data set [2] relates to A431 cells. As to the kind of experiment: AO/EB and DAPI staining, A431. The format is cell-based, human. Conditions: A431, AO/EB or DAPI staining, 48 h. Here is the method:
Approximately 2 × 10^5 cells/well of A431 and H1975 cells in 6-well plates were incubated in an incubator for 48 h, then treated with different concentrations of inhibitors for 48 h. After incubation, the cells were washed with PBS twice. Then, total of 20 μL of the solution containing the AO/EB dye mix (1.0 μg/mL of AO and 1.0 μg/mL of EB in PBS) was added to the cells. The apoptotic, necrotic, and live cells were observed and counted under the fluorescent microscope (OLYMPUS, Tokyo, Japan). DAPI staining was performed after being treated as mentioned above. The cells plated in 6-well plates were washed twice with PBS and fixed with 10% formaldehyde for 10 min, then washed with PBS three times. Cells were subsequently incubated in DAPI (1.0 μg/mL) solution at room temperature for 10 min, washed with PBS and examined under a fluorescence microscope (OLYMPUS).

In data set [3] the test system is A431 cells. Description: Wound healing and transwell assays, A431. The format is cell-based, human. Here is the method: The cancer cells were cultured in 6-well plates for 48 h at 37 °C. Wounds were created in the cell monolayer and washed with PBS to remove cell debris, then the cells were treated with different concentrations of inhibitor for 48 h. After that, the dead cells were washed away with PBS, and the images were taken by the fluorescence microscope (OLYMPUS).
Cell migration assay was evaluated by using Boyden chambers containing a transwell membrane filter with an 8 μm size pore (Corning Costa Corp, Cambridge, MA, USA). Prior to the invasion assay, the filter membrane was coated with 60 μL of Matrigel (BD Biosciences, Billerica, MA, USA) at a 1:8 dilution and rehydrated by adding […] serum-free medium to the apical side of the chamber at 37 °C for 0.5 h. The cells (2 × 10^5 cells/well for invasion assay) were seeded to the apical side of the chamber with 200 μL medium with different concentrations of inhibitors, and the basolateral side of the chamber was filled with 600 μL medium containing 10% FBS. After 24 h at 37 °C, the cells adherent to the upper surface of the filter were swept by cotton swabs, then fixed with methanol, stained with crystal violet, and the cells were counted under a microscope in five random fields, irrespective of staining intensity. The images were taken by the fluorescence microscope (OLYMPUS).

The next data set relates to A549 cells. As to the kind of experiment: CCK-8 cell viability, A549. Type of data set: cell-based. To be noted: Homo sapiens; A549 (wild-type and k-ras), CCK-8; read-out: Cellular Antiproliferative Activity (IC50, μM) A549. Here is the method: as §1
Data set [4] relates to A431 cells. As to the kind of experiment: Intracellular ROS generation (DCFH-DA), A431. Type of data set: cell-based, human. To be noted: A431, 24 h. Here is the method:
The human H1975 and A431 cells at a density of approximately 2 × 10^5 cells/well were plated in a 6-well plate and then treated with different concentrations of inhibitors for 24 h. Then the cells were harvested, resuspended in 1 mL of DCFH-DA ([…]), and the levels of ROS were determined by flow cytometry (Becton-Dickinson, Franklin Lakes, NJ, USA).

Data set [5] can be described thus: In vivo blood sugar test (rat oral glucose tolerance). To be noted: healthy male SD rats, 50 mg/kg (HBr form), up to 12 h. Here is the method: The Roche Accu-chek® Go blood meter was used for the determination of glucose concentration. Before testing, standard set-up of blood meter was performed according to the instrument’s specifications. […] Water was allowed ad libitum throughout the study. Rats were orally given compound DY3002 (50 mg/kg) and a vehicle. For the oral study, the compounds were formulated as a solution (Solutol HS15: NS = 30:70, v:v). Sampling occurred prior to dosing and at 7–9 different time points up to 12 h. Concentration of glucose in the blood was determined by blood meter.

For the next data set, the system named is HCC827 cells. Description: CCK-8 cell viability, HCC827. The format is cell-based. To be noted: Homo sapiens; HCC827 (EGFR del E746_A750), CCK-8; read-out: Cellular Antiproliferative Activity (IC50, μM) HCC827. Here is the method: as §1

T1 sequence (P00533 25-1210): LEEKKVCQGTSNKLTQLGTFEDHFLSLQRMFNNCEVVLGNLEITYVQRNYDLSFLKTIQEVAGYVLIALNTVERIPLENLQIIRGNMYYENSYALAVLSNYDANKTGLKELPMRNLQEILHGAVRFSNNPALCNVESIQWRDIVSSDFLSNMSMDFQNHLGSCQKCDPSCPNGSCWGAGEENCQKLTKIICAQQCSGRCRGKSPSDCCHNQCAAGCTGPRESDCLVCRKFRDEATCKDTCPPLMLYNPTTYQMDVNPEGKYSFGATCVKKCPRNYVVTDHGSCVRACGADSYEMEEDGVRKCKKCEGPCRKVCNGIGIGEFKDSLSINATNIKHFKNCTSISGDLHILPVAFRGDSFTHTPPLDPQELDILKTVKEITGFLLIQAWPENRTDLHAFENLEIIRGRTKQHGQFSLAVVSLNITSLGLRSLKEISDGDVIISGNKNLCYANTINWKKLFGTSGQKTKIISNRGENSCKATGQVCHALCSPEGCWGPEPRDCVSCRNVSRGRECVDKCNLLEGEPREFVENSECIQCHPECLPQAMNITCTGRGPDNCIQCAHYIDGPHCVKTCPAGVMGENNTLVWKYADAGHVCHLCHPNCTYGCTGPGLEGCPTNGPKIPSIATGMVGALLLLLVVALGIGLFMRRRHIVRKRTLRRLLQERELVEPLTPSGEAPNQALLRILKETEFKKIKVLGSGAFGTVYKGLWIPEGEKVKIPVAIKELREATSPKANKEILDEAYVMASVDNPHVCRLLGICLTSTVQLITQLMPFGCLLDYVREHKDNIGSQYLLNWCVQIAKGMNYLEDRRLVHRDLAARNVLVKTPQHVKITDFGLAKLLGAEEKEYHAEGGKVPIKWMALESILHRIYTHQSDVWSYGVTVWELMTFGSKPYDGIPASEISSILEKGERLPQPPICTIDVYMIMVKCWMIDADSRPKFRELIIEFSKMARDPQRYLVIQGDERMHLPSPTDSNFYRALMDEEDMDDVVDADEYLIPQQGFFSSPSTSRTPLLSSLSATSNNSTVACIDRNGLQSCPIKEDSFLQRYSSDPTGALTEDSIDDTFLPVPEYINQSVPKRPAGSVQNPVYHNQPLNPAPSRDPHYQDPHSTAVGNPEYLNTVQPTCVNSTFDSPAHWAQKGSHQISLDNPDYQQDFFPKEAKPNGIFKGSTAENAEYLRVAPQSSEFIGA

In the case of `C=CC(=O)Nc1cccc(Nc2nc(Nc3ccc(CN4CCOCC4)cc3)ncc2Cl)c1` [DY3002, N-(3-((5-chloro-2-(4-((1-morpholino)methyl)phenylamino)-4-pyrimidinyl)amino)phenyl)acrylamide], the IC50 was greater than 40 µM with HBE cells; 0.037 µM in the data set on H1975 cells; 0.382 µM in the data set on A431 cells [1]; 449 nM at wild-type EGFR; 2.46 µM in the data set with LoVo cells; 4.45 µM in the data set with A549 cells. The concentration for half-maximal inhibition (IC50) in the data set with HCC827 cells came out at 0.0104 µM. For the same compound, in the data set with A431 cells [2], the apoptotic morphology entry was “striking nuclear condensation, membrane blebbing, nuclear fragmentation, and apoptotic bodies”. The “inhibition of cell migration” value with A431 cells [3] was “only moderately interfered”. In addition, the “effect on ROS generation” value with A431 cells [4] was “effectively inhibited ROS generation”. Further, in [5], the “hyperglycemia (blood glucose concentration versus control group)” value is “did not result in hyperglycemia; also recorded: did not yield hyperglycemia; also recorded: no hyperglycemia side effects”.

The record behind these values is paper PMC6274483, “Novel Selective and Potent EGFR Inhibitor that Overcomes T790M-Mediated Resistance in Non-Small Cell Lung Cancer” (Molecules, 2016).
